Assay results taken from US20130253048A1, “Pharmaceutical Composition for Promoting Osteogenesis Containing Axial-equatorial Aryl-oriented Furofuran-type Lignan, and Pharmaceutical Preparation, Functional Food Product, and Health Food Product Comprising Composition” (ERINA CO., INC., priority 2010, published 2013).

Experiments:
[1] = system: ovariectomized mouse (type I osteoporosis model animal); assay: Change of bone mass in type I osteoporosis model animal (ovariectomized mice, dosing 3 months, femur pQCT); assay type: in vivo
Excerpt: Female Slc: ddy mice of 4 weeks old (Japan SLC, Inc.) was operated with ovariectomy to use as a type I osteoporosis model animal. Also, in order to delete the affection by invasion, a group which is operated without ovariectomy (Sham operation) is set (Sham group). These were the […] model animals.
Animal bedding were changed twice a week and always to use all fresh one, CRF-1 (Oriental Yeast Co., Ltd.) is fed as feed and deionized water as drinking water were freely given. Their body weights were weighed twice a week by the end of the experiment.
Fargesin was dissolved in 30 mL of a solution (it is referred to as “TD solution”, hereinbelow) containing 4% dimethyl sulfoxide (it is referred to as “DMSO”, hereinbelow) and 4% TWEEN 80 (both were purchased from Wako Pure Chemical Industries, Ltd.) so as that a dosage amount of fargesin becomes 20 mg/kg body wt/day, or […].
After the surgical operation, the mice were adapted to the circumstances for 5 days, and then they were divided to the Sham group, the negative control, the positive control group, and the test substance administration group (6 mice per group). The ovariectomized mice were used for the negative control group, the positive control group, and the test substance administration group.
Fargesin solution was daily administrated to the ovariectomized mice in the test group at the dosage of 20 mg/kg body wt/day (it is referred to as “F20 group”, hereinbelow) or 100 mg/kg body wt/day (it is referred to as “F100 group”, hereinbelow) for 3 month p.o.
In order to study effects of fargesin on the bone, the femur, the largest long bone, was used.
The mice in each group were killed by the cervical dislocation under diethyl ether anesthesia. Their right femurs were excised with muscles, and the muscles were removed from the femur after the excision. Lengths of the excised bones from the mice in the groups were measured, and they were dipped in 70% ethanol to be fixed.
In FIG. 3, the bone was shown schematically. The long bone (tubular bone) was composed of two thick and rounded ends (epiphysis), and thin and long part between them (a shaft). The bone extends to longitudinal direction, depending on the growth of a plate-shape epiphyseal cartilage (a growth plate) between the epiphysis and the shaft. The region of 1 mm proximal side from the A position for a measurement was set to that from 1 mm proximal region (epiphysis) from the distal growth plate as decided as the measurement region.
The bone density was measured by using the peripheral quantitative computed tomography (pQCT, XCT Research SA+, Stratec Medizintechnik GmbH, Merk Ltd) (FIG. 3B). The measurement was performed under the conditions: a diameter of 90 mm, a voxel size of 0.12 mm, a CT speed of 10 mm/sec, and a block number of 1. Bone mineral content (mg/mm), bone density (mg/cm^3), and cross section of the bone (mm^2) of the entire of tomographic images (whole bone area) were calculated.
Next, the area of the cancellous bone was extracted (peel mode 20), and then the bone mineral amount (mg/mm), the section of the bone (mm^2), and the bone density (mg/cm^3) were calculated. Further to the cortical bone, the bone mineral amount (mg/mm), the bone density (mg/cm^3), the section of the bone (mm^2), a bone thickness (mm), the periosteum perimeter of the cortical bone (mm), and the endosteum perimeter of the cortical bone (mm) were calculated.
Based on the bone diameter and the bone density measured by the pQCT, SSI was calculated. SSI is composed of Polar SSI (torsion strength in polar coordination), X-axis SSI (strength in X axis, three-point bending strength), and Y-axis SSI (Y axis strength, three-point lateral bending strength), and it is expressed by the following general equation.
Wherein, Z is the coefficient of the cross section (mm^3), CBD is the bone density of the cortical bone (mg/cm^3), and ND is the physiological bone density (1200 mg/cm^3). The coefficient Z is shown as the following equation.

TRACP5b = assay: Serum TRACP5b of OVX mice (bone metabolism marker); assay type: in vivo, mouse; conditions: 80 μg/kg/day s.c.; compared to the OVX group
Procedure: All obtained blood from the heart under diethyl ether anesthesia at dissection was stored at 4 degree centigrade for 24 hours. Then, the blood was centrifuged at 3,000 rpm (4,000×g) for 15 minutes to separate the sera.
According to the protocol of Mouse TRAP™ Assay (Immuno-diagnostic Systems Ltd, the United of Kingdom), TRACP5b in the obtained sera was determined.

[2] = system: ovariectomized mouse (OVX mouse); assay: Bone formation in ovariectomized mouse (OVX mouse), dosing after bone resorption induction period, femur pQCT; assay type: in vivo; conditions: 80 μg/kg/day s.c.
Procedure: Four-week-old female Slc; ddy mice (Japan SLC, Inc.) were purchased, and they were divided into 8 groups without acclimate keeping (6 mice per group). They were anesthetized by using 50 mg/kg of pentobarbital to be ovariectomized (it is referred to as “OVX” herein below) or to have Sham operation (it is referred to as “Sham” herein below) under the anesthesia which is given by intraperitoneal administration of 50 mg/kg of Somnopentyl (pentobarbital sodium).
From the second day of the ovariectomy (or Sham operation), each group was maintained under the condition of 12 hour light/dark cycle, 23±3 degree centigrade as the room temperature, and humidity 55±5% for 2 months as the bone resorption induction period. The animal bedding was exchanged twice a week and all fresh bedding was used at all times. CRF-1 (Oriental Yeast Co., Ltd.) as the feed and deionized water as drinking water were freely given.
After two month period from the test start, the bone resorption induction period, the test substance were given to each group at the amount shown in the following Table 7 for 3 month.
Ninety % of MeOH fraction (Shin-i) obtained in Example 1 and Fargesin (may refer to “Far” thereafter) were respectively dissolved into TD solution at the concentration shown in Table 7, and then they were administrated per os.
Human PTH (1-34) (herein below, it is sometimes referred to as “hPTH (1-34)”) were dissolved in distilled water at the concentration of 80 μg/kg/day, and it was administrated subcutaneously.
After 3 month from the administration start, the mice belonging to all of the groups were weighed. They were anesthetized by using diethylether, and were collected their blood from their hearts, and then they were died. Then, organs such as the uterus, the white adipose tissue (WAT), the brown adipose tissue (BAT), the liver, the spleen, and both left and right lower extremities were removed. The left and right lower extremities were separated into the femurs and the tibias, and they were stored in 70% EtOH under the room temperature.
The muscles were removed from the obtained femur (right), and then its bone density and the like were measured by using pQCT employed in Example 1 under the following conditions.
Recognition of contour (CONTMODE): 2 (auto search of ROI)
Recognition method of cancellous bone: Surface & Area
Ration of cancellous bone area to all of the cross section areas: 35%
CORTMODE used in CORTBD: 1* * Voxels not larger than the standard value for distinguishing the cortical bone from the cancellous bone (threshold: threshold) were omitted. Each tissue weight was also measured.
TH value used in CORTBD: 690
Among the all data of cancellous bone density obtained from pQCT, both of the highest and the lowest data were deleted to obtain the Median. As to the other parameters were treated as the same as this, the graph was made with N=6. Statistical analysis was performed by using the Dennett's two-sided t test.

[3] = OVX mice, B100 group: 100 μg/kg body wt/day i.p.
[4] = OVX mice, B100 group: 100 μg/kg body wt/day i.p. (text prints F100 group)
[5] = OVX mice, B100 group: 100 μg/kg body wt/day i.p., right femur, pQCT
[6] = OVX mice, 3 months dosing after 2-month induction

C[C@]12CC[C@@H]3c4ccc(O)cc4CC[C@H]3[C@@H]1CC[C@@H]2O [β-estradiol, reference compound]
Average body weight during mouse growth ([1]; B100 group: 100 μg/kg body wt/day i.p., versus NC group): lower than that of NC group mice | Cortical bone Bone density [1, 3]: 867.475 ± 13.724 mg/mL | Cortical bone Bone thickness [1, 3]: 0.365 ± 0.038 mm | Cortical bone adventitia diameter [1, 3]: 7.9895 ± 0.096 mm | Cortical bone lining membrane diameter [1, 3]: 5.699 ± 0.229 mm | Polar axis bone strength (Table 3) [1, 3]: 1.946 ± 0.107 mm^3 | bone mineral mass, cancellous bone [1, 3]: 0.725±0.110 mg/mm | bone mineral mass, whole bone [1, 3]: 3.325±0.203 mg/mm | bone mineral mass, cortical bone [1, 4]: 2.163±0.230 mg/mm | cross section area of the bone, cortical bone [1, 4]: 2.4825±0.230 mm^2 | Polar axis strength (polar coordinates strength) ([1]; OVX mice, B100 group: 100 μg/kg body wt/day i.p., SSI from pQCT): 1.376±0.088 mm^3 | Bone density Cancellous bone [1, 5]: 399.050 ± 53.851 mg/mL | Bone density whole bone [1, 5]: 652.025 ± 28.386 mg/mL

hPTH(1-34): Human PTH (1-34), dissolved in distilled water, administrated subcutaneously [reference compound]
level of TRACP5b in the sera (TRACP5b): did not show major alteration | Bone density of cancellous bone, relative value ([2]; 5M Sham = 100): 76.1 | Bone density of cortical bone, relative value ([2]; 5M Sham = 100): 92.2 | Bone density of the whole bones, relative value ([2]; 5M Sham = 100): 86.0 | Bone strength (polar coordinates torsion strength) ([2]; compared to Control OVX group): significantly increased | Bone density of cancellous bone [2, 6]: 88.83 ± 30.90 mg/cm^2 | Bone density of cortical bone [2, 6]: 906.50 ± 32.19 mg/cm^2 | Bone thickness of cortical bone [2, 6]: 0.22 ± 0.03 mm | Cross section area of cortical bone [2, 6]: 1.69 ± 0.25 mm^2 | Perimeter of cortical bone adventitia [2, 6]: 8.37 ± 0.26 mm | Perimeter of cortical bone lining membrane [2, 6]: 6.98 ± 0.34 mm | Bone density of the whole bones ([2]; OVX mice, 3 months dosing after 2-month induction, right femur, pQCT): 452.25 ± 49.00 mg/cm^2
